The source of these data is patent US20240173432A1, “Compositions and Methods for Treatment of Myotonic Dystrophy Type 1 with CRISPR/SluCas9” (Vertex Pharmaceuticals Incorporated, priority 2021, published 2024).

Series [1] relates to CUG foci in primary DM1 patient myoblasts. In words: Dual-cut screening: FISH staining of CUG RNA foci. The series is classed as cell-based, human. To be noted: sgRNA pair, primary DM1 patient myoblasts; for % of CUG foci free nuclei (DNA-PKi): 3 μM DNA-PKi Compound 6 for 48 hours; for % of CUG foci free nuclei (Vehicle): vehicle (DMSO). The method, boiled down: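 SluCas9 RNPs (protein:sgRNA 1:3; 20 pmol SluCas9 + 60 pmol sgRNA per guide, paired 1:1) nucleofected into primary DM1 patient myoblasts, then DMSO or 3 μM DNA-PKi Compound 6 for 48 h. At 72 h post-nucleofection cells fixed, FISH-stained with Cy3-PNA(CAG)5 probe plus anti-MBNL1 and Hoechst; % CUG foci-free nuclei by high-content confocal imaging.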

Series [2] concerns CTG repeat in the 3′ UTR of human DMPK gene. In words: Dual-cut screening: CTG repeat excision efficiency by loss-of-signal ddPCR. The following applies: sgRNA pair, primary DM1 patient myoblasts; for Excision efficiency (by ddPCR): 3 μM DNA-PKi Compound 6 for 48 hours; for Excision efficiency by ddPCR (Vehicle): vehicle (DMSO). The series is classed as cell-based. Summed up:
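Upstream and downstream SluCas9 RNPs (20 pmol protein, 60 pmol sgRNA each) mixed 1:1 and nucleofected into primary DM1 patient myoblasts, then treated 48 h with DMSO or 3 μM DNA-PKi Compound 6. Genomic DNA taken 72 h post-nucleofection; excision read as loss of target signal by ddPCR versus a DMPK exon 1 reference.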

With “SluU62 + SluD68 (guide 1 AGGACCCTTCGAGCCCCGTTCG; guide 2 CCTGTAGCCTGTCAGCGAGTCG; guide RNA; listed as DNA, chemistry not fully specified)”, in series [1], the “% of CUG foci free nuclei (DNA-PKi)” value was found to be 87.71% and the “% of CUG foci free nuclei (Vehicle)” value was found to be 49.06%. In series [2], the “Excision efficiency (by ddPCR)” value is listed as 63.55 and the “Excision efficiency by ddPCR (Vehicle)” value is given as 33.08.

Turning to “SluU08 + SluD18 (guide 1 GCCCCGTTGGAAGACTGAGTGC; guide 2 TGGAGGATGGAACACGGACGGC; guide RNA; listed as DNA, chemistry not fully specified)”, in series [1], the “% of CUG foci free nuclei (DNA-PKi)” value is given as 90.44% and the “% of CUG foci free nuclei (Vehicle)” value worked out at 67.06%. Moreover, in series [2], the “Excision efficiency (by ddPCR)” value is 63.55 and the “Excision efficiency by ddPCR (Vehicle)” value is recorded as 50.56.

Turning to “SluU62 + SluD32 (guide 1 AGGACCCTTCGAGCCCCGTTCG; guide 2 CTTGTGCATGACGCCCTGCTCT; guide RNA; listed as DNA, chemistry not fully specified)”, in series [1], the “% of CUG foci free nuclei (DNA-PKi)” value stood at 88.75% and the “% of CUG foci free nuclei (Vehicle)” value was determined as 55.63%. Besides, in series [2], the “Excision efficiency (by ddPCR)” value amounted to 79.91 and the “Excision efficiency by ddPCR (Vehicle)” value amounted to 50.19.

For the substance “SluU08 + SluD68 (guide 1 GCCCCGTTGGAAGACTGAGTGC; guide 2 CCTGTAGCCTGTCAGCGAGTCG; guide RNA; listed as DNA, chemistry not fully specified)”, in series [1], the “% of CUG foci free nuclei (DNA-PKi)” value is 88.24% and the “% of CUG foci free nuclei (Vehicle)” value turned out to be 65.1%. In series [2], the “Excision efficiency (by ddPCR)” value is on record as 62.56 and the “Excision efficiency by ddPCR (Vehicle)” value is listed as 42.63.

In the case of “SluU06 + SluD48 (guide 1 TGTCTTCGACTCCGGGGCCCCG; guide 2 GAGAGCAGCGCAAGTGAGGAGG; guide RNA; listed as DNA, chemistry not fully specified)”, in series [1], the “% of CUG foci free nuclei (DNA-PKi)” value was determined as 89.46% and the “% of CUG foci free nuclei (Vehicle)” value is recorded as 66.88%. For the same substance, in series [2], the “Excision efficiency (by ddPCR)” value came out at 63.33 and the “Excision efficiency by ddPCR (Vehicle)” value amounted to 45.89.

On to “SluU62 + SluD56 (guide 1 AGGACCCTTCGAGCCCCGTTCG; guide 2 CCAGCCGGCTCCGCCCGCTTCG; guide RNA; listed as DNA, chemistry not fully specified)”, for which, in series [1], the “% of CUG foci free nuclei (DNA-PKi)” value came to 84.3% and the “% of CUG foci free nuclei (Vehicle)” value stood at 36.42%. Also, in series [2], the “Excision efficiency (by ddPCR)” value was determined as 61.21 and the “Excision efficiency by ddPCR (Vehicle)” value amounted to 32.08.

On to “SluU63 + SluD56 (guide 1 GGGGCTCGAAGGGTCCTTGTAG; guide 2 CCAGCCGGCTCCGCCCGCTTCG; guide RNA; listed as DNA, chemistry not fully specified)”, for which, in series [1], the “% of CUG foci free nuclei (DNA-PKi)” value was 88.12% and the “% of CUG foci free nuclei (Vehicle)” value is given as 60.91%. Further, in series [2], the “Excision efficiency (by ddPCR)” value worked out at 90.05 and the “Excision efficiency by ddPCR (Vehicle)” value came out at 50.69.

Turning to “SluU08 + SluD100 (guide 1 GCCCCGTTGGAAGACTGAGTGC; guide 2 GTCCAGAGCTTTGGGCAGATGG; guide RNA; listed as DNA, chemistry not fully specified)”, in series [1], the “% of CUG foci free nuclei (DNA-PKi)” value is recorded as 88.59% and the “% of CUG foci free nuclei (Vehicle)” value was determined as 66.31%. Besides, in series [2], the “Excision efficiency (by ddPCR)” value was 66.38 and the “Excision efficiency by ddPCR (Vehicle)” value is given as 41.65.

In the case of “SluU63 + SluD83 (guide 1 GGGGCTCGAAGGGTCCTTGTAG; guide 2 GTGGGGACAGACAATAAATACC; guide RNA; listed as DNA, chemistry not fully specified)”, in series [1], the “% of CUG foci free nuclei (DNA-PKi)” value is given as 89.8% and the “% of CUG foci free nuclei (Vehicle)” value came out at 74.11%. In series [2], the “Excision efficiency (by ddPCR)” value turned out to be 93.27 and the “Excision efficiency by ddPCR (Vehicle)” value turned out to be 58.74.

Consider “SluU21 + SluD14 (guide 1 GCTCGGAGCGGTTGTGAACTGG; guide 2 ATGGGCAAACTGCAGGCCTGGG; guide RNA; listed as DNA, chemistry not fully specified)”, for which, in series [1], the “% of CUG foci free nuclei (DNA-PKi)” value amounted to 89.6% and the “% of CUG foci free nuclei (Vehicle)” value was determined as 61.25%. In addition, in series [2], the “Excision efficiency (by ddPCR)” value came out at 63.05 and the “Excision efficiency by ddPCR (Vehicle)” value stood at 54.02.

For the substance “SluU59 + SluD56 (guide 1 CGCGGCCGGCGAACGGGGCTCG; guide 2 CCAGCCGGCTCCGCCCGCTTCG; guide RNA; listed as DNA, chemistry not fully specified)”, in series [1], the “% of CUG foci free nuclei (DNA-PKi)” value is 84.48% and the “% of CUG foci free nuclei (Vehicle)” value was 46.4%. In series [2], the “Excision efficiency (by ddPCR)” value is reported as 55.14 and the “Excision efficiency by ddPCR (Vehicle)” value turned out to be 35.6.

Turning to “SluU59 + SluD32 (guide 1 CGCGGCCGGCGAACGGGGCTCG; guide 2 CTTGTGCATGACGCCCTGCTCT; guide RNA; listed as DNA, chemistry not fully specified)”, in series [1], the “% of CUG foci free nuclei (DNA-PKi)” value came out at 91.19% and the “% of CUG foci free nuclei (Vehicle)” value turned out to be 69.23%. Besides, in series [2], the “Excision efficiency (by ddPCR)” value is 83.32 and the “Excision efficiency by ddPCR (Vehicle)” value worked out at 57.23.

Regarding “SluU63 + SluD100 (guide 1 GGGGCTCGAAGGGTCCTTGTAG; guide 2 GTCCAGAGCTTTGGGCAGATGG; guide RNA; listed as DNA, chemistry not fully specified)”, in series [1], the “% of CUG foci free nuclei (DNA-PKi)” value is listed as 89.97% and the “% of CUG foci free nuclei (Vehicle)” value came to 73.15%. Also, in series [2], the “Excision efficiency (by ddPCR)” value is 91.5 and the “Excision efficiency by ddPCR (Vehicle)” value is 58.24.

Turning to “SluU63 + SluD32 (guide 1 GGGGCTCGAAGGGTCCTTGTAG; guide 2 CTTGTGCATGACGCCCTGCTCT; guide RNA; listed as DNA, chemistry not fully specified)”, in series [1], the “% of CUG foci free nuclei (DNA-PKi)” value came out at 89.04% and the “% of CUG foci free nuclei (Vehicle)” value stood at 75.26%. In series [2], the “Excision efficiency (by ddPCR)” value is given as 94.81 and the “Excision efficiency by ddPCR (Vehicle)” value is reported as 60.75.

As for “SluU64 + SluD83 (guide 1 GGGCTCGAAGGGTCCTTGTAGC; guide 2 GTGGGGACAGACAATAAATACC; guide RNA; listed as DNA, chemistry not fully specified)”, in series [1], the “% of CUG foci free nuclei (DNA-PKi)” value is listed as 90.63% and the “% of CUG foci free nuclei (Vehicle)” value stood at 76.55%. Further, in series [2], the “Excision efficiency (by ddPCR)” value was determined as 78.97 and the “Excision efficiency by ddPCR (Vehicle)” value stood at 55.22.

In the case of “SluU08 + SluD34 (guide 1 GCCCCGTTGGAAGACTGAGTGC; guide 2 CGCGCCAGACGCTCCCCAGAGC; guide RNA; listed as DNA, chemistry not fully specified)”, in series [1], the “% of CUG foci free nuclei (DNA-PKi)” value came out at 91.15% and the “% of CUG foci free nuclei (Vehicle)” value stood at 77.93%. In series [2], the “Excision efficiency (by ddPCR)” value amounted to 69.47 and the “Excision efficiency by ddPCR (Vehicle)” value is given as 58.11.

Turning to “SluU59 + SluD68 (guide 1 CGCGGCCGGCGAACGGGGCTCG; guide 2 CCTGTAGCCTGTCAGCGAGTCG; guide RNA; listed as DNA, chemistry not fully specified)”, in series [1], the “% of CUG foci free nuclei (DNA-PKi)” value is 89.37% and the “% of CUG foci free nuclei (Vehicle)” value is recorded as 62.8125%. For the same substance, in series [2], the “Excision efficiency (by ddPCR)” value is recorded as 65.42 and the “Excision efficiency by ddPCR (Vehicle)” value is 58.24.

“SluU62 + SluD73 (guide 1 AGGACCCTTCGAGCCCCGTTCG; guide 2 CCAAAACGTGGATTGGGGTTGT; guide RNA; listed as DNA, chemistry not fully specified)”: in series [1], the “% of CUG foci free nuclei (DNA-PKi)” value is 88.13% and the “% of CUG foci free nuclei (Vehicle)” value was 52.87%. Also, in series [2], the “Excision efficiency (by ddPCR)” value amounted to 65.89 and the “Excision efficiency by ddPCR (Vehicle)” value is 38.11.

Turning to “SluU63 + SluD48 (guide 1 GGGGCTCGAAGGGTCCTTGTAG; guide 2 GAGAGCAGCGCAAGTGAGGAGG; guide RNA; listed as DNA, chemistry not fully specified)”, in series [1], the “% of CUG foci free nuclei (DNA-PKi)” value was determined as 90.03% and the “% of CUG foci free nuclei (Vehicle)” value is listed as 73.73%. In addition, in series [2], the “Excision efficiency (by ddPCR)” value is 94.25 and the “Excision efficiency by ddPCR (Vehicle)” value stood at 63.77.

As for “SluU64 + SluD48 (guide 1 GGGCTCGAAGGGTCCTTGTAGC; guide 2 GAGAGCAGCGCAAGTGAGGAGG; guide RNA; listed as DNA, chemistry not fully specified)”, in series [1], the “% of CUG foci free nuclei (DNA-PKi)” value is given as 88.44% and the “% of CUG foci free nuclei (Vehicle)” value was found to be 75.45%. Moreover, in series [2], the “Excision efficiency (by ddPCR)” value was 80.84 and the “Excision efficiency by ddPCR (Vehicle)” value is recorded as 47.67.

Take “SluU21 + SluD32 (guide 1 GCTCGGAGCGGTTGTGAACTGG; guide 2 CTTGTGCATGACGCCCTGCTCT; guide RNA; listed as DNA, chemistry not fully specified)”: in series [1], the “% of CUG foci free nuclei (DNA-PKi)” value turned out to be 88.76% and the “% of CUG foci free nuclei (Vehicle)” value was 52.71%. Further, in series [2], the “Excision efficiency (by ddPCR)” value is given as 70.09 and the “Excision efficiency by ddPCR (Vehicle)” value was found to be 41.94.

In the case of “SluU21 + SluD48 (guide 1 GCTCGGAGCGGTTGTGAACTGG; guide 2 GAGAGCAGCGCAAGTGAGGAGG; guide RNA; listed as DNA, chemistry not fully specified)”, in series [1], the “% of CUG foci free nuclei (DNA-PKi)” value is 86.36% and the “% of CUG foci free nuclei (Vehicle)” value was 51.76%. For the same substance, in series [2], the “Excision efficiency (by ddPCR)” value is recorded as 59.19 and the “Excision efficiency by ddPCR (Vehicle)” value turned out to be 36.66.
